Reference: patent publication US20110053770A1, “SUBSTITUTED AMINOTHIAZOLES AND THEIR USE AS FUNGICIDES” (BAYER CROPSCIENCE AG, priority 2009, published 2011)
Marks after values point to notes of the source that are not given here.

Assay: logP by HPLC on reversed-phase columns (C 18), EEC directive 79/831 Annex V.A8
Assay type: physicochemical
Settings: for log P (**): pH 2.7, 0.1% aqueous formic acid and acetonitrile
Experimental: Calibration was carried out using unbranched alkan-2-ones (having from 3 to 16 carbon atoms) with known logP values (the logP values were determined by the retention times using linear interpolation between two successive alkanones).

| Structure (SMILES) | log P (**) (LC-MS, acidic range) | log P (***) (LC-MS, neutral range, pH 7.8, 0.001 molar aqueous ammonium bicarbonate and acetonitrile) | log P (*) (acidic range, pH 2.3, 0.1% aqueous phosphoric acid and acetonitrile) |
| --- | --- | --- | --- |
| Clc1ccc(-c2csc(N=C3CCCCN3)n2)c(Cl)c1 [compound 104, 4-(2,4-dichlorophenyl)-N-[(2E/Z)-piperidin-2-ylidene]-1,3-thiazole-2-amine] | 1.76 | 3.92 | 1.76 |
| FC(F)(F)c1cccc(-c2csc(N=C3CCCCN3)n2)c1 [compound 105, N-[(2E/Z)-piperidin-2-ylidene]-4-[3-(trifluoromethyl)phenyl]-1,3-thiazole-2-amine] | 1.75** | – | – |
| Brc1cccc(-c2csc(N=C3CCCCN3)n2)c1 [compound 106, 4-(3-bromophenyl)-N-[(2E/Z)-piperidin-2-ylidene]-1,3-thiazole-2-amine] | 1.53** | – | – |
| Brc1ccccc1-c1csc(N=C2CCCCN2)n1 [compound 107, 4-(2-bromophenyl)-N-[(2E/Z)-piperidin-2-ylidene]-1,3-thiazole-2-amine] | 1.38** | – | – |
